Test results published in PMC12454639, “Direct disassembly of α-syn preformed fibrils into α-syn monomers by an all-D-peptide” (NPJ Parkinson's Disease, 2025).
“Also recorded” adds a separate entry of the source. Where two headings read alike, the source gives them in different places. Square brackets hold non-standard residues; d marks the D form. Peptide text beside a SMILES is read from it.

How the values were obtained:
α-syn monomer = test: De novo ThT aggregation assay (10 µM α-syn); type: biochemical; details: 37 °C, n = 5
Method: The Thioflavin T (ThT) assay is commonly used for the visualization of α-syn fibrilization, since the dye ThT is able to bind to the amyloidogenic cross-β-sheet proportions of fibril structures. Recombinant α-syn was thawed on ice and centrifuged for 30 min at 21,000 × g and 4 °C. The concentration of the supernatant was determined as described previously. Lyophilized D-peptides were thawed at RT for 1 h and dissolved in 500 µl PBS pH 7.4. After centrifugation for 30 min at 21,000 × g the supernatant concentration was determined by UV–vis using the corresponding extinction coefficient at A280. […] ThT fluorescence was monitored with bottom optics at λex = 448 nm and λem = 482 nm in a fluorescence plate reader with orbital averaging on 3 mm (Clariostar or Polarstar Optima, BMG labtech, GE). […]
ThT assay was used for different purposes. […] Lag-time and t½ were calculated as described previously. […]
(§1) ThT fluorescence progression was measured in a 96-well non-binding half-area plate (Corning, USA) with a FLUOStar platereader (BMG labtech, GE) at λex = 448 nm and λem = 482 nm. […] 10 µM α-syn monomer was incubated with 5, 10 and 20 µM peptide at 37 °C, adding one borosilicate glass bead per well (d = 3.0 mm, Hilgenberg, GE) with continuous orbital shaking at 300 rpm in between reads. […]
For each fit, x ½, lag-time and steady state response was determined in order to calculate their mean value for each condition. […]

small α-syn PFF seeds = test: Seeded ThT aggregation assay; type: biochemical; details: then 20 µM α-syn monomer, n = 3
Method: The Thioflavin T (ThT) assay is commonly used for the visualization of α-syn fibrilization, since the dye ThT is able to bind to the amyloidogenic cross-β-sheet proportions of fibril structures. Recombinant α-syn was thawed on ice and centrifuged for 30 min at 21,000 × g and 4 °C. The concentration of the supernatant was determined as described previously. Lyophilized D-peptides were thawed at RT for 1 h and dissolved in 500 µl PBS pH 7.4. After centrifugation for 30 min at 21,000 × g the supernatant concentration was determined by UV–vis using the corresponding extinction coefficient at A280. All ThT assay experiments were performed at 37 °C with 15 µM ThT and 0.05% sodium azide (w/v) in PBS pH 7.4 if not otherwise stated. ThT fluorescence was monitored with bottom optics at λex = 448 nm and λem = 482 nm in a fluorescence plate reader with orbital averaging on 3 mm (Clariostar or Polarstar Optima, BMG labtech, GE). Prior to measurement start, 120 µl sample solution was transferred to a non-binding 96-half area well plate with transparent flat bottom (Corning, USA). One borosilicate glass bead (d = 3.0 mm, Hilgenberg, GE) was added to each well for all de novo aggregation assays. For seeded aggregation assays, no bead was used, and samples were incubated under quiescent conditions. Wells that surrounded the sample wells were filled with the same volume of buffer to improve heat distribution. Experiments were performed with five replicates (n = 5) if not otherwise stated.
ThT assay was used for different purposes. […] Lag-time and t½ were calculated as described previously. […] Measurements were taken every 5 min (n = 3).
small α-syn PFF seeds were prepared as described previously with some modifications. First, insoluble PFF were produced by incubation of 300 µM recombinant α-syn in a LoBind reaction tube (Eppendorf GmbH, GE) with one borosilicate glass bead (d = 3.0 mm; Hilgenberg, DE) in 20 mM NaPi, pH 7.0, 150 mM NaCl, 0.05% (w/v) sodium azide for one week at 37 °C. The insoluble PFF were harvested by ultracentrifugation at 100,000 × g for 30 min at 4 °C, and the pellet was washed several times with 20 mM NaPi, pH 7.0, 150 mM NaCl. The monomer equivalent concentration was determined by measuring the α-syn concentration in the supernatant after the first centrifugation and subtracting it from the start concentration for fibrilization. […]
as §1

PC12 cells = type: cell-based; details: for PC12 cell viability with PFF: 24 h
Method: PC12 cells (Leibniz Institute DSMZ, GE) were cultivated on collagen A-coated (Biochrom GmbH, GE) tissue culture flasks in RPMI 1640 medium supplemented with 5% fetal calf serum and 10% horse serum in a 95% humidified atmosphere with 5% CO2 at 37 °C. 10,000 cells per well in a volume of 100 µl were seeded on collagen A-coated 96-well plates (Thermo Fisher Scientific, USA) and were incubated for 24 h at 37 °C and 300 rpm in a thermo cycler. […] In addition, 15 µM of the peptides alone, cell media, buffer without peptides and 0.1% Triton X-100 (cytotoxic compound) served as controls. After further incubation in a 95% humidified atmosphere with 5% CO2 at 37 °C for 24 h, cell viability was measured using the Cell Proliferation Kit I (MTT) (Roche Applied Science, CH) according to the manufacturer’s protocol. The MTT formazan product was quantified by measuring the absorbance at 570 nm corrected by subtraction of the absorbance at 660 nm in a FLUOStar Optima plate reader (BMG Labtech, GE). All results were normalized to untreated cells grown in medium only. Test on significance was performed using one-way ANOVA with Bonferroni post hoc analysis (OriginPro 2020, OriginLab, USA; n = 4).
Test on significance was performed using one-way ANOVA with Bonferroni post hoc analysis: * […], *** p ≤ 0.01. Mean data are shown with ±SD (n = 4). While the cell viability was reduced by 50 % in the presence of 30 nM soluble small α-syn PFF alone, no toxic effect of the compounds on PC12 was observed. […] Thus, similar cell viability saving effects were found for SVD-1a using a 30-fold lower concentration.

Row | Compound | inhibition of de novo aggregation (α-syn monomer; 10 µM α-syn, 5, 10 and 20 µM peptide, glass bead, continuous shaking 300 rpm) | inhibition of seeded aggregation (small α-syn PFF seeds; 50 nM small α-syn PFF pre-incubated 20 h with peptide, 37 °C quiescent) | PC12 cell viability with PFF (PC12 cells; 15 µM) | inhibition of de novo aggregation at twofold molar excess (α-syn monomer; 10 µM α-syn, 20 µM peptide) | effect on elongation rate (small α-syn PFF seeds; 5 µM peptide, 50 nM PFF pre-incubated 20 h) | inhibition of seeding (small α-syn PFF seeds; 20 µM or higher peptide (20 µM for SVD-1_scrambled+5r), 50 nM PFF pre-incubated 20 h) | fold lower concentration for similar cell viability saving effect vs SVD-1 (PC12 cells; 0.5 µM SVD-1a vs 15 µM SVD-1) | PC12 cell viability with PFF (PC12 cells; 0.5 µM)
1 | CC[C@@H](C)[C@@H](NC(=O)[C@@H](Cc1c[nH]cn1)NC(=O)[C@@H](CCC(=O)O)NC(=O)[C@@H](CCC(N)=O)NC(=O)[C@@H](Cc1c[nH]c2ccccc12)NC(=O)[C@@H](Cc1ccc(O)cc1)NC(=O)[C@H](NC(=O)[C@@H](CCC(=O)O)NC(=O)[C@@H](Cc1c[nH]cn1)NC(=O)[C@H](NC(=O)[C@H]1CCCN1C(=O)[C@@H](CCSC)NC(=O)[C@H](N)CCCCN)[C@H](C)O)[C@H](C)O)C(=O)N[C@H](Cc1c[nH]c2ccccc12)C(=O)N[C@H](Cc1c[nH]cn1)C(=O)N[C@H](C)C(N)=O [SVD-1] (H-[dK][dM][dP][dT][dH][dE][dT][dY][dW][dQ][dE][dH][dI][dW][dH][dA]-NH2) | concentration-dependent delay of aggregation onset as well as by a reduction of steady state levels; also recorded: inhibits primary nucleation of α-syn | significantly decelerate amyloid growth in the seeded environment; also recorded: inhibits elongation and secondary nucleation of α-syn | 89% |  |  |  |  | 
2 | CC[C@@H](C)[C@@H](NC(=O)[C@@H](Cc1c[nH]cn1)NC(=O)[C@@H](CCC(=O)O)NC(=O)[C@@H](CCC(N)=O)NC(=O)[C@@H](Cc1c[nH]c2ccccc12)NC(=O)[C@@H](Cc1ccc(O)cc1)NC(=O)[C@H](NC(=O)[C@@H](CCC(=O)O)NC(=O)[C@@H](Cc1c[nH]cn1)NC(=O)[C@H](NC(=O)[C@H]1CCCN1C(=O)[C@@H](CC(C)C)NC(=O)[C@H](N)CCCNC(=N)N)[C@H](C)O)[C@H](C)O)C(=O)N[C@H](Cc1c[nH]c2ccccc12)C(=O)N[C@H](Cc1c[nH]cn1)C(=O)N[C@H](C)C(=O)N[C@H](CCCNC(=N)N)C(=O)N[C@H](CCCNC(=N)N)C(=O)N[C@H](CCCNC(=N)N)C(=O)N[C@H](CCCNC(=N)N)C(=O)N[C@H](CCCNC(=N)N)C(N)=O [SVD-1a] (H-[dR][dL][dP][dT][dH][dE][dT][dY][dW][dQ][dE][dH][dI][dW][dH][dA][dR][dR][dR][dR][dR]-NH2) |  |  |  | completely inhibited | a reduction of the elongation rate was observed | complete inhibition of the seeding capacity | 30 -fold | 82%
